The values below come from patent US9951055B2, “Thiazole-based inhibitors of scavenger receptor BI” (THE BROAD INSTITUTE, INC., priority 2012, dated 2018).

Entries after “also recorded” stand apart in the source; their conditions may differ. Structures can show the parent of a compound that is named as a salt. Where two headings read alike, the source gives them in different places.

In one experiment the target is T1, murine SR-BI (Mus musculus, UniProt Q61009).
T1 construct: expressed in transfected cells; host or cells: ldlA[mSR-BI]; (CHO ldlA7 derivative lacking the LDL receptor)
T1 sequence (Q61009 1-509): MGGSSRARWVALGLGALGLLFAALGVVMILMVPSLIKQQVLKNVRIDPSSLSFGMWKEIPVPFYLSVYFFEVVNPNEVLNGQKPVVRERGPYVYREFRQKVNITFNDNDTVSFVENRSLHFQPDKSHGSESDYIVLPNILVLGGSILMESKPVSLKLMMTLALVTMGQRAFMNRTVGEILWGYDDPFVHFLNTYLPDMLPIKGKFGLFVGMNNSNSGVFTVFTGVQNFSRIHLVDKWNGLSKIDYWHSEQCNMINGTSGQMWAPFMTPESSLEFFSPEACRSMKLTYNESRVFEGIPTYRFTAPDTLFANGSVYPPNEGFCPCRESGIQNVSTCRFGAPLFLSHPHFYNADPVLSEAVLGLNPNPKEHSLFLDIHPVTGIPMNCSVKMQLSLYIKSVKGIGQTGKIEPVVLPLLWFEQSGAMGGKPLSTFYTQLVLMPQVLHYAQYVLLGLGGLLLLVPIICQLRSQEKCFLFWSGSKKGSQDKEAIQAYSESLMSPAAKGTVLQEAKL
Description: DiI-HDL uptake assay (primary assay). The experiment is classed as cell-based. The text has this: The following cell lines were used in this study: • ldlA[mSR-BI] is a Chinese hamster ovary (CHO) cell line that overexpresses murine SR-BI, isoform 1 (NP_058021) and was obtained from the Assay Provider (Krieger Laboratory). This cell line was used for the primary assay and several secondary assays. […] This cell line was obtained from the Assay Provider. Assays DiI-HDL Uptake Assay (Primary Assay AID Nos. 488896, 493194, 540354 588392, 588553, 588548, 588754, 588828, 588833)
ldlA[mSR-BI]cells were plated into 384-well plates at 30 μl per well and incubated overnight. As a measurable surrogate for cholesterol uptake, human HDL particles were treated with the lipophilic fluorescent dye DiI and exposed to ldlA[mSR-BI]cells in lipoprotein-free media (Ham's F12/0.5% fatty acid-free Bovine Serum Albumin (BSA)/25 mM HEPES pH 7.4 plus 10 μg protein/ml DiI-HDL). Cells took up the DiI via SR-BI over 3 hours in the presence of compound. After significant uptake of the DiI, the cells became fluorescent. The level of fluorescence correlates with the amount of DiI uptake and can be measured with a standard plate reader (here a PerkinElmer EnVision plate reader was used). The uptake of lipid (represented by DiI) was inhibited by the positive control compound BLT-1 or with an excess of HDL untreated with DiI. Primary HTS data were analyzed in Genedata Screener Assay Analyzer, and were normalized against DMSO and the positive control (1 μM BLT-1). For the HTS, the average of two replicates was used to rank order activity and to choose compounds for retests. For dose studies, percent (%) activity was determined for each concentration and the concentration response curves (CRCs) were generated with Genedata Condeseo.
To identify novel inhibitors, SR-BI-mediated lipid uptake was measured in an engineered cell line that minimized potential uptake by other mechanisms, including via the LDL receptor (1). ldlA[mSR-BI]cells overexpress murine isoform 1 and selectively take up HDL lipid at similar levels as “has been reported for cultured mouse adrenal cells, perfused organs, and liver, adrenal gland and ovary in vivo” (1). This primary cell-based assay was used in a pilot screen that identified BLTs 1 through 5 (12). The assay was slightly modified from the original protocol of Nieland et al. to increase throughput and to ease automation procedures.

The test system of experiment [1] is Jc1 378-1 TagRFP reporter HCV virus. Description: In vitro inhibition of HCV in Huh-7.5 cells. The experiment is classed as cell-based, hepatitis C virus. The settings on record: for inhibition of HCV replication: Huh-7.5 cells, MOI=0.1, 3 dpi; for mean fluorescence intensity (MFI) of HCV positive cells: normalized to DMSO control. How it is done: The compound of formula (II) was also tested for the in vitro inhibition of HCV. Huh-7.5 cells were seeded in a 24-well plates (50,000 cells/well) and incubate over night. The medium was changed to compound/solvent containing medium 2 hours prior to infection (200 μL/well) with a reporter HCV virus called Jc1 378-1 TagRFP. A dilute virus stock was used to infect at a MOI of 0.1 (7,500 IU/well) in 10 μL medium. 10 μL of virus dilution was added to the wells containing compound/solvent (thereby dilution the compounds by only ˜5%). Infections were incubated for 4 hours before washing off the inoculum 1× with 500 μL medium. Fresh compound/solvent containing medium was added to the cells (500 μL/well), and further incubated for 48-72 hours. Cells were harvested at 48-72 hpi and viral replication was determined by fixing the cells and measuring replication by FACS (fluorescence activated cell sorting). Controls having antibodies that neutralize HCV by blocking E2 (2 μg/mL) and controls having antibodies that block a HCV receptor CD81 (2 μg/mL) were used.
A series of tests were conducted using the compound of Formula II ML278), other known inhibitors of SRB1 and controls with cells infected with hepatitis C virus (HCV). The cells (Huh-7.5 cells infected with Jc1 378-1 TagRFP (MOI=0.1) 3 dpi) were treated with the following SR-BI compounds and controls:
Three different infection protocols were followed: (1) no wash—virus inoculum was removed 4 hpi and fresh medium containing compounds added without washing cells; (2) 5× wash—virus inoculum was removed 4 hpi, cells were washed 5× with PBS and fresh medium containing compounds added; and (3) no wash Opt—infection were performed in serum-free OptiMem; virus inoculum was removed 4 hpi and fresh medium containing compounds added without washing cells. FIG. 107 provides a comparison of the three different infection set-ups. FIG. 108 provides a comparison of two independent experiments.

In experiment [2] the test system is endocytosis of transferrin. Description: Transferrin endocytosis assay. Type of experiment: cell-based. The text has this:
Transferrin Endocytosis Assay (SA 3: AID No. 602134) This assay measures the endocytosis of an independent ligand, transferrin, which is not taken up via SR-BI but by clathrin-mediated endocytosis. This assay provides a measure of the selectivity of the inhibitors. Alexa-594-labeled transferrin is taken into the cell via endocytosis and localization of labeled transferrin was quantitated in the various intracellular compartments. […] Inhibitors of interest should act selectively at SR-BI and should have no activity in this assay. Cells were pre-treated with compound for 3 hours and then treated with the Alexa-594 transferrin reagent for 30 minutes (Catalog No. T-13343; Invitrogen) in serum-free media. Plates of cells were then placed onto ice, washed with ice cold PBS, and then fixed with 4% paraformaldehyde. In addition, the nuclei were stained with 300 nM 4′,6-diamidino-2-phenylindole (DAPI) (Catalog No. 21490; Invitrogen). The cells were imaged with the Molecular Devices IXM microscope (FIG. 22). Translocation measurements were performed using MetaExpress software and normalized for cell number.

Broadly, the IC50 is the concentration that inhibits the measured activity by half. As for `COc1cc(OC)cc(C(=O)Nc2nc(-c3ccc4c(c3)CCN4C(=O)OC(C)(C)C)cs2)c1` [Boc carbamate, tert-Butyl 5-(2-(3,5-dimethoxybenzamido)thiazol-4-yl)indoline-1-carboxylate], at murine SR-BI (read-out: IC50, DiI-HDL uptake), the half-inhibitory concentration (IC50) worked out at 0.9 nM.
Regarding `CC(=O)Nc1ccc(Cl)c(C(=O)Nc2ccc(N3CCN(C(=O)OC(C)(C)C)CC3)cc2)c1` [Compound R-154716], the “inhibition of HCV replication” value in experiment [1] (listed as SRB1-2) is “inhibited viral replication; also recorded: able to inhibit HCV replication”. Moreover, in experiment [1], the “mean fluorescence intensity (MFI) of HCV positive cells” value is reported as “increased mean fluorescence intensity (MFI) of HCV positive cells in a dose dependent manner”.
For `COc1c(NC(=O)C(=O)c2ccc(OCCN3CCOCC3)c3ccccc23)cc(C(C)(C)C)cc1NS(C)(=O)=O` [ITX-5061], in experiment [1] (listed as SRB1-9), the “inhibition of HCV replication” value is recorded as “inhibited viral replication; also recorded: able to inhibit HCV replication”. Further, in experiment [1], the “mean fluorescence intensity (MFI) of HCV positive cells” value is on record as “this increase was not seen”.
In the case of `CCC(=O)N1CCc2cc(-c3csc(NC(=O)c4ccco4)n3)ccc21` [MLS001217863], at murine SR-BI (range, read-out: range of IC50 for HDL-mediated lipid uptake), the IC50 was 0.93 to 6 nM. In experiment [2], the “endocytosis of transferrin” value is reported as “not grossly perturbing cellular membrane trafficking pathways”.
Regarding `COc1cc(OC)cc(C(=O)Nc2nc(-c3ccc4c(c3)CCN4)cs2)c1` [N-(4-(Indolin-5-yl)thiazol-2-yl)-3,5-dimethoxybenzamide, trifluoroacetic acid salt], the “loss of activity/potency relative to parent analog” value at murine SR-BI is on record as “approximately 3 fold”.
